SMILES strings stand for the structures. In brackets after ≈: the same amount, converted by molar mass.

The source of these data is ChEMBL document CHEMBL1687777, “Membrane efflux and influx modulate both multidrug resistance and virulence of Klebsiella pneumoniae in a Caenorhabditis elegans model” (2010).

In test [1] the test system is Klebsiella pneumoniae. Description: Antibacterial activity against porin, OmpA positive Klebsiella pneumoniae KPBj3 expressing efflux system by disk agar diffusion method. The class given is functional.
Test [2] relates to Klebsiella pneumoniae. Description: Antibacterial activity against porin, OmpA positive Klebsiella pneumoniae KPBj1 expressing efflux system by disk agar diffusion method. It counts as functional. In general terms: Agar diffusion results depend on both activity and mobility in agar.
For test [3], the system named is Klebsiella pneumoniae. Put plainly: Antibacterial activity against porin, OmpA positive Klebsiella pneumoniae KPBj3 revertant by disk agar diffusion method. It counts as functional.
The subject of test [4] is Klebsiella pneumoniae. Put plainly: Antibacterial activity against porin deficient OmpA positive Klebsiella pneumoniae KPBj3 expressing efflux system by disk agar diffusion method. It counts as functional.
The subject of test [5] is Klebsiella pneumoniae. Description: Antibacterial activity against porin deficient OmpA positive Klebsiella pneumoniae KPBj3 revertant by disk agar diffusion method. It counts as functional.
Test [6] has as its system Klebsiella pneumoniae. Description: Antibacterial activity against porin deficient OmpA positive Klebsiella pneumoniae KPBj5 revertant by disk agar diffusion method. The class given is functional.
Test [7] concerns Klebsiella pneumoniae. Description: Antibacterial activity against porin deficient OmpA positive extended-spectrum beta-lactamase producing Klebsiella pneumoniae KPBj1 revertant by disk agar diffusion method. It counts as functional.
The test system of test [8] is Klebsiella pneumoniae. Put plainly: Antibacterial activity against porin deficient OmpA positive Klebsiella pneumoniae KPBj5 expressing efflux system by disk agar diffusion method. The class given is functional.
For test [9], the system named is Klebsiella pneumoniae. Description: Antibacterial activity against porin, OmpA positive Klebsiella pneumoniae KPBj1 revertant by disk agar diffusion method. The class given is functional.
The subject of test [10] is Klebsiella pneumoniae. Put plainly: Antibacterial activity against porin deficient OmpA positive Klebsiella pneumoniae KPBj1 revertant by disk agar diffusion method. The class given is functional.
Test [11] relates to Klebsiella pneumoniae. Put plainly: Antibacterial activity against porin deficient OmpA positive Klebsiella pneumoniae KPBj1 expressing efflux system by disk agar diffusion method. The class given is functional.
For test [12], the system named is Klebsiella pneumoniae. Description: microbe, parasite or virus in culture. The settings on record: KPBj1.
Description: Antibacterial activity against porin deficient OmpA positive extended-spectrum beta-lactamase producing Klebsiella pneumoniae KPBj1 expressing efflux system by disk agar diffusion method
For test [13], the system named is Klebsiella pneumoniae. Description: Antibacterial activity against porin, OmpA positive Klebsiella pneumoniae KPBj5 expressing efflux system by disk agar diffusion method. It counts as functional.
Test [14] has as its system Klebsiella pneumoniae. Put plainly: Antibacterial activity against porin, OmpA positive Klebsiella pneumoniae ATCC 138821 by disk agar diffusion method. It counts as functional.
In test [15] the test system is Klebsiella pneumoniae. Put plainly: Antibacterial activity against porin, OmpA positive Klebsiella pneumoniae KPBj5 revertant by disk agar diffusion method. The class given is functional.
Test [16] deals with Klebsiella pneumoniae. Put plainly: Antibacterial activity against porin, OmpA positive extended-spectrum beta-lactamase producing Klebsiella pneumoniae KPBj1 revertant by disk agar diffusion method. The class given is functional.
Test [17] concerns Klebsiella pneumoniae. Put plainly: Antibacterial activity against porin, OmpA positive extended-spectrum beta-lactamase producing Klebsiella pneumoniae KPBj1 by disk agar diffusion method. The class given is functional.

Take `O=C(N[C@H](CO)[C@H](O)c1ccc([N+](=O)[O-])cc1)C(Cl)Cl` [CHLORAMPHENICOL]: the MIC in test [1] turned out to be 128 µg/mL (≈ 396 µM); in test [2] it was 128 µg/mL (≈ 396 µM); in test [3], 4 µg/mL (≈ 12.4 µM); in test [4], 128 µg/mL (≈ 396 µM); in [5], 4 µg/mL (≈ 12.4 µM); in test [6], 2 µg/mL (≈ 6.19 µM). The MIC in test [7] was determined as 4 µg/mL (≈ 12.4 µM); in [8] it was 8 µg/mL (≈ 24.8 µM); in test [9], 2 µg/mL (≈ 6.19 µM); in test [10], 4 µg/mL (≈ 12.4 µM); in test [11] it was 128 µg/mL (≈ 396 µM); in test [12], 128 µg/mL (≈ 396 µM). Further, the MIC in test [13] came to 8 µg/mL (≈ 24.8 µM); in test [14] it was 2 µg/mL (≈ 6.19 µM); in test [15] it was 2 µg/mL (≈ 6.19 µM); in [16], 2 µg/mL (≈ 6.19 µM); in test [17], 128 µg/mL (≈ 396 µM).

For `C[C@@H](O)[C@H]1C(=O)N2C(C(=O)O)=C(S[C@@H]3CN[C@H](C(=O)Nc4cccc(C(=O)O)c4)C3)[C@H](C)[C@H]12`, the MIC in test [1] was found to be 0.007 µg/mL (≈ 0.0147 µM); in [2], 0.007 µg/mL (≈ 0.0147 µM); in test [3], 0.007 µg/mL (≈ 0.0147 µM); in [4], 0.25 µg/mL (≈ 0.526 µM); in [5], 0.25 µg/mL (≈ 0.526 µM); in test [6], 0.25 µg/mL (≈ 0.526 µM). Further, the MIC in [7] was 2 µg/mL (≈ 4.21 µM); in test [8] it was 0.25 µg/mL (≈ 0.526 µM); in [9], 0.007 µg/mL (≈ 0.0147 µM); in test [10], 0.5 µg/mL (≈ 1.05 µM); in [11], 0.5 µg/mL (≈ 1.05 µM); in test [12], 4 µg/mL (≈ 8.41 µM). Moreover, the MIC is 0.015 µg/mL (≈ 0.0315 µM) in test [13]; 0.007 µg/mL (≈ 0.0147 µM) in [14]; 0.007 µg/mL (≈ 0.0147 µM) in [15]; 0.03 µg/mL (≈ 0.0631 µM) in test [16]; 0.125 µg/mL (≈ 0.263 µM) in [17].

As to `CC(C)(O/N=C(\C(=O)N[C@@H]1C(=O)N2C(C(=O)[O-])=C(C[n+]3ccccc3)CS[C@H]12)c1csc(N)n1)C(=O)O` [CEFTAZIDIME], the MIC in [1] was 0.25 µg/mL (≈ 0.457 µM); in test [2], 0.25 µg/mL (≈ 0.457 µM); in test [3], 0.125 µg/mL (≈ 0.229 µM); in [4] it was 0.25 µg/mL (≈ 0.457 µM); in test [5], 0.25 µg/mL (≈ 0.457 µM); in test [6], 0.125 µg/mL (≈ 0.229 µM). The MIC in [7] was 32 µg/mL (≈ 58.5 µM); in test [8], 0.25 µg/mL (≈ 0.457 µM); in test [9], 0.125 µg/mL (≈ 0.229 µM); in test [10], 0.125 µg/mL (≈ 0.229 µM); in test [11] it was 0.125 µg/mL (≈ 0.229 µM); in test [12], 32 µg/mL (≈ 58.5 µM). For the same compound, the MIC was 0.25 µg/mL (≈ 0.457 µM) in test [13]; 0.125 µg/mL (≈ 0.229 µM) in [14]; 0.125 µg/mL (≈ 0.229 µM) in test [15]; 16 µg/mL (≈ 29.3 µM) in [16]; 32 µg/mL (≈ 58.5 µM) in test [17].

Turning to `CO/N=C(\C(=O)N[C@@H]1C(=O)N2C(C(=O)O)=C(COC(C)=O)CS[C@H]12)c1csc(N)n1` [CEFOTAXIME], the MIC in [1] is 0.06 µg/mL (≈ 0.132 µM); in test [2], 0.125 µg/mL (≈ 0.274 µM); in test [3], 0.06 µg/mL (≈ 0.132 µM); in test [4], 0.25 µg/mL (≈ 0.549 µM); in test [5], 0.25 µg/mL (≈ 0.549 µM); in test [6] it was 0.125 µg/mL (≈ 0.274 µM). In addition, the MIC in [7] was found to be 256 µg/mL (≈ 562 µM); in [8] it was 0.25 µg/mL (≈ 0.549 µM); in [9], 0.06 µg/mL (≈ 0.132 µM); in test [10], 0.25 µg/mL (≈ 0.549 µM); in test [11], 0.25 µg/mL (≈ 0.549 µM); in [12], 256 µg/mL (≈ 562 µM). The MIC in test [13] is 0.125 µg/mL (≈ 0.274 µM); in test [14] it was 0.06 µg/mL (≈ 0.132 µM); in test [15], 0.06 µg/mL (≈ 0.132 µM); in [16] it was 128 µg/mL (≈ 281 µM); in [17] it was 128 µg/mL (≈ 281 µM).

As to `CO[C@@]1(NC(=O)Cc2cccs2)C(=O)N2C(C(=O)O)=C(COC(N)=O)CS[C@@H]21` [CEFOXITIN], the MIC in test [1] was 4 µg/mL (≈ 9.36 µM); in test [2] it was 8 µg/mL (≈ 18.7 µM); in test [3], 2 µg/mL (≈ 4.68 µM); in test [4], 32 µg/mL (≈ 74.9 µM); in test [5], 32 µg/mL (≈ 74.9 µM); in test [6] it was 16 µg/mL (≈ 37.4 µM). Besides, the MIC was found to be 32 µg/mL (≈ 74.9 µM) in [7]; 32 µg/mL (≈ 74.9 µM) in [8]; 2 µg/mL (≈ 4.68 µM) in [9]; 32 µg/mL (≈ 74.9 µM) in [10]; 32 µg/mL (≈ 74.9 µM) in [11]; 32 µg/mL (≈ 74.9 µM) in [12]. Besides, the MIC in [13] is 8 µg/mL (≈ 18.7 µM); in test [14] it was 2 µg/mL (≈ 4.68 µM); in [15], 2 µg/mL (≈ 4.68 µM); in test [16] it was 2 µg/mL (≈ 4.68 µM); in test [17] it was 8 µg/mL (≈ 18.7 µM).

In the case of `CCn1cc(C(=O)O)c(=O)c2ccc(C)nc21` [NALIDIXIC ACID], the MIC in test [1] was determined as 32 µg/mL (≈ 138 µM); in test [2], 32 µg/mL (≈ 138 µM); in [3] it was 2 µg/mL (≈ 8.61 µM); in test [4], 32 µg/mL (≈ 138 µM); in [5] it was 2 µg/mL (≈ 8.61 µM); in [6], 2 µg/mL (≈ 8.61 µM). Further, the MIC in test [7] was 4 µg/mL (≈ 17.2 µM); in test [8], 8 µg/mL (≈ 34.4 µM); in [9], 2 µg/mL (≈ 8.61 µM); in [10] it was 2 µg/mL (≈ 8.61 µM); in [11] it was 32 µg/mL (≈ 138 µM); in test [12], 32 µg/mL (≈ 138 µM). For the same compound, the MIC in test [13] stood at 8 µg/mL (≈ 34.4 µM); in [14] it was 4 µg/mL (≈ 17.2 µM); in test [15], 2 µg/mL (≈ 8.61 µM); in [16] it was 4 µg/mL (≈ 17.2 µM); in test [17], 32 µg/mL (≈ 138 µM).

For `C[C@H]1COc2c(N3CCN(C)CC3)c(F)cc3c(=O)c(C(=O)O)cn1c23.C[C@H]1COc2c(N3CCN(C)CC3)c(F)cc3c(=O)c(C(=O)O)cn1c23.O` [LEVOFLOXACIN], the MIC in test [3] was found to be 0.03 µg/mL; in test [5], 0.015 µg/mL; in test [6], 0.06 µg/mL; in test [7], 0.06 µg/mL; in test [9], 0.03 µg/mL; in test [10], 0.06 µg/mL. Moreover, the MIC in [14] came to 0.03 µg/mL; in test [15], 0.06 µg/mL; in test [16], 0.03 µg/mL.
